Data on 28 compounds can be found in US12570671B2 (BRISTOL-MYERS SQUIBB COMPANY, priority 2020, dated 2026).

In one experiment the target is Ikaros (Homo sapiens, UniProt Q13422+Q96SW2). Nature of the experiment: Helios Cellular Degradation Assay (Ikaros readout). It counts as cell-based. Further details: endogenous in cells; host or cells: Jurkat. Conditions: Jurkat cells, 72 h incubation, Ikaros-Alexa488 antibody staining, flow cytometry; read-out: Ikaros Jurkat IC50. The method, then:
(§1) Jurkat cells were plated at 80,000 cells/well in 40 μL RPMI+10% FBS in a 384 well cell culture plate prior to using acoustic dispensing technology for adding compound of interest. Cell cultures were incubated for 72 h at 37° C. and 5% C02. In order to facilitate analysis, cell cultures were spun down at 200 rpm for 5 min and the supernatant was discarded. After shaking the plate to dislodge the cell pellet, cells were resuspended in 50 μL of Fixation Buffer (eBioScience FoxP3 buffer set 00-5523-00) for 60 min at room temperature. After centrifuging and discarding the supernatant, cells were permeabilized with 50 μL of Permeabilization buffer (eBioScience FoxP3 buffer set 00-5523-00) for 10 min at room temperature. Following permeabilization, cells were spun down and the supernatant was replaced with 20 μL fluorescently labelled antibodies against Helios, Ikaros and Aiolos or corresponding Isotype controls in 1× Permeabilization buffer (Ikaros-Alexa488 [Biolegend, Cat #368408, 1:50], Helios-PE [CST, Cat #29360, 1:50], Aiolos-Alexa647 [Biolegend, Cat #371106Biolegend, 1:25]) and staining reactions were incubated for 1 h at room temperature; protected from light. Subsequently, 30 μL of 1× Permeabilization buffer was added prior to centrifuging the cells and discarding the supernatant. Stained cells were resuspended in 25 μL of flow cytometry staining buffer (PBS+0.2% BSA) and analyzed using an Intellicyt Ique Plus flow cytometer.

The target in a further experiment is Helios (Homo sapiens, UniProt Q96SW2+Q9UKS7). Nature of the experiment: Helios Cellular Degradation Assay (Helios readout). It counts as cell-based. Further details: endogenous in cells; host or cells: Jurkat. Conditions: Jurkat cells, 72 h incubation, Helios-PE antibody staining, flow cytometry; read-out: Helios Jurkat IC50. The method, then:
as §1
A general note: A flow cytometer gives signals particle by particle.

Sequence of Ikaros (Q13422 whole entry): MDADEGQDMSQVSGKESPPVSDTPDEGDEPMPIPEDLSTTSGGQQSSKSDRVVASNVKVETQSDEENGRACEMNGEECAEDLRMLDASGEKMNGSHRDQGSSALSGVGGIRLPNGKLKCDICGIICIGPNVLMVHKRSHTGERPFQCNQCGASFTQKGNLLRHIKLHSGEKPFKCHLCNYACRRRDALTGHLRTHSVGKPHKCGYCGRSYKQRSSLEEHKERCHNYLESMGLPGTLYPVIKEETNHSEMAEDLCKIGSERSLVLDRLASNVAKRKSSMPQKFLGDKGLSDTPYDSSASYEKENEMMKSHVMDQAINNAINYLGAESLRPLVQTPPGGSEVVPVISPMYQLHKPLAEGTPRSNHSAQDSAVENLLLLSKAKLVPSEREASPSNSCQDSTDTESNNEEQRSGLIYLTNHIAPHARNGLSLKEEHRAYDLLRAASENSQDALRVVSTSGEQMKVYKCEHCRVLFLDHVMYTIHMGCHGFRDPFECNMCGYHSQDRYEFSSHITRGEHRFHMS
Sequence of Ikaros (Q96SW2 whole entry): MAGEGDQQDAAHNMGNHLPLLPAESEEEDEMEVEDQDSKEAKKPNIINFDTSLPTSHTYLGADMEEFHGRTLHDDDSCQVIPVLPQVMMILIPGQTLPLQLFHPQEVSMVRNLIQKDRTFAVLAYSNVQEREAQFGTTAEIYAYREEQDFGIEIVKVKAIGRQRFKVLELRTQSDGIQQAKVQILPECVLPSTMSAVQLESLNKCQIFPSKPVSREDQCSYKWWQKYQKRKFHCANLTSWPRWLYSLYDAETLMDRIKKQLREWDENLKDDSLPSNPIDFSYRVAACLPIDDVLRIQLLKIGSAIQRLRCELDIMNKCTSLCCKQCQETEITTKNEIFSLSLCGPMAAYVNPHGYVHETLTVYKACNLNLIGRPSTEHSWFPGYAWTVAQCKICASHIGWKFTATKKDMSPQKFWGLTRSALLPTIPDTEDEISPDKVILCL
Sequence of Ikaros (Q16531 whole entry partner): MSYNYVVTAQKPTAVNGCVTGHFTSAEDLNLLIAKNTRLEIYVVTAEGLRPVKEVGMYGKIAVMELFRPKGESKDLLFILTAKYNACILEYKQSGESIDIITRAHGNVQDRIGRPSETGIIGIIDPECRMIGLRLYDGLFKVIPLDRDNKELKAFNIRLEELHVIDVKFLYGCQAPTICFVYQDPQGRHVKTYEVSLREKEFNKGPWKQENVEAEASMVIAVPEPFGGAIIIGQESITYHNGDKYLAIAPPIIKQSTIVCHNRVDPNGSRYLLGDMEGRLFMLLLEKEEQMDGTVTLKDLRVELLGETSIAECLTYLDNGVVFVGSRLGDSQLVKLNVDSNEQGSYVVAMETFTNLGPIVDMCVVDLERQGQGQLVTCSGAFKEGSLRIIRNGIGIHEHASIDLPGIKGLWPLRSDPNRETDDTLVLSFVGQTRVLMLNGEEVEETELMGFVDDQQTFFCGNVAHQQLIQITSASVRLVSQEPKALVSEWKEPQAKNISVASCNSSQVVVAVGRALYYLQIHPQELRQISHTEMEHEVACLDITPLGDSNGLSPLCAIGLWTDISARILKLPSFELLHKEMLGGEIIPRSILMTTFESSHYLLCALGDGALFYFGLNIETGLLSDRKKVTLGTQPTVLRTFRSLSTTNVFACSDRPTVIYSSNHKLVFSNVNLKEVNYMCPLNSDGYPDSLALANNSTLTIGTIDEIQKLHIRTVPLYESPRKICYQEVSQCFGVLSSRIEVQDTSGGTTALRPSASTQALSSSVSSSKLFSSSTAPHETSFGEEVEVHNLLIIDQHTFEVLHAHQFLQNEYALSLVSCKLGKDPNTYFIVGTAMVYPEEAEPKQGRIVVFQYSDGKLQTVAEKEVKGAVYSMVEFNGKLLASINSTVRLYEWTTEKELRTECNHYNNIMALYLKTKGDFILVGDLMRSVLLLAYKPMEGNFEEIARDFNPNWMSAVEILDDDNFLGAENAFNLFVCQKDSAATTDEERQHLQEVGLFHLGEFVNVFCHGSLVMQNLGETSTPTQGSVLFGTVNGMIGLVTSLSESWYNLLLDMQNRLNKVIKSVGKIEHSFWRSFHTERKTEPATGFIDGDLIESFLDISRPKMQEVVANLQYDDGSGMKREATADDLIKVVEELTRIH
Sequence of Helios (Q9UKS7 whole entry): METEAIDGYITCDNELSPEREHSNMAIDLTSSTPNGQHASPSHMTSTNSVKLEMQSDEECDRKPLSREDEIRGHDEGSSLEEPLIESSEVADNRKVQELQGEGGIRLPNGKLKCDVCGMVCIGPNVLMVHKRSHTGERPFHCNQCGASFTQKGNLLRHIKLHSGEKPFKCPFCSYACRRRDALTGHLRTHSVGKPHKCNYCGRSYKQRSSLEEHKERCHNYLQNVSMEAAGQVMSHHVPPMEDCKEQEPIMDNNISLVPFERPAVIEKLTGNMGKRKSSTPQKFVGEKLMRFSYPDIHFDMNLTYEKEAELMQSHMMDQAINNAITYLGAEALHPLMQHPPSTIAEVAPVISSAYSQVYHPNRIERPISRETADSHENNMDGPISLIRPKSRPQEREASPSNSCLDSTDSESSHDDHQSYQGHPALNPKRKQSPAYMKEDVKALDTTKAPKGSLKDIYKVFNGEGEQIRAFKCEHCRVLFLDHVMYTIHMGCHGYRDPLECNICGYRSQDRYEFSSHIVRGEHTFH
Sequence of Helios (Q96SW2 whole entry): as the sequence (Q96SW2 whole entry) above
Sequence of Helios (Q16531 whole entry partner): as the sequence (Q16531 whole entry partner) above

As for `Nc1nc(-c2ccc3c(c2)CN(C2CCC(=O)NC2=O)C3=O)cc2[nH]ccc(=O)c12` (centres unmarked) [Example 47, 3-[5-(5-Amino-4-oxo-1,4-dihydro-1,6-naphthyridin-7-yl)-1-oxo-2,3-dihydro-1H-isoindol-2-yl]piperidine-2,6-dione], the DC50 at Ikaros was above 20000 nM; at Helios, 220 nM.

Take `CC(=O)Nc1nc(-c2ccc3c(c2)CN(C2CCC(=O)NC2=O)C3=O)cc2ccccc12` (centres unmarked) [Example 48, N-{3-[2-(2,6-Dioxopiperidin-3-yl)-1-oxo-2,3-dihydro-1H-isoindol-5-yl]isoquinolin-1-yl}acetamide]: the DC50 is above 20000 nM at Ikaros and 90 nM at Helios.

Consider `CN(C)c1nc(-c2ccc3c(c2)CN(C2CCC(=O)NC2=O)C3=O)cc2ccccc12` (centres unmarked) [Example 49, 3-{5-[1-(Dimethylamino)isoquinolin-3-yl]-1-oxo-2,3-dihydro-1H-isoindol-2-yl}piperidine-2,6-dione], for which the DC50 on Ikaros is above 20000 nM; on Helios, 37 nM.

On to `CNc1nc(-c2ccc3c(c2)CN(C2CCC(=O)NC2=O)C3=O)cc2ccccc12` (centres unmarked) [Example 50, 3-{5-[1-(Methylamino)isoquinolin-3-yl]-1-oxo-2,3-dihydro-1H-isoindol-2-yl}piperidine-2,6-dione], for which the results for the DC50 at Ikaros and on Helios were above 20000 nM and 11 nM, respectively.

With `CNc1nc(-c2ccc3c(c2)CN(C2CCC(=O)NC2=O)C3=O)cc2ncccc12` (centres unmarked) [Example 51, 3-{5-[5-(Methylamino)-1,6-naphthyridin-7-yl]-1-oxo-2,3-dihydro-1H-isoindol-2-yl}piperidine-2,6-dione], the DC50 on Ikaros is above 20000 nM; at Helios, 26 nM.

For `CC(=O)N(C)c1nc(-c2ccc3c(c2)CN(C2CCC(=O)NC2=O)C3=O)cc2ccccc12` (centres unmarked) [Example 52, N-{3-[2-(2,6-Dioxopiperidin-3-yl)-1-oxo-2,3-dihydro-1H-isoindol-5-yl]isoquinolin-1-yl}-N-methylacetamide], the values for the DC50 on Ikaros and at Helios were above 20000 nM and 210 nM, respectively.

Consider `Nc1cc2cccnc2c(-c2ccc3c(c2)CN(C2CCC(=O)NC2=O)C3=O)n1` (centres unmarked) [Example 53, 3-[5-(6-Amino-1,7-naphthyridin-8-yl)-1-oxo-2,3-dihydro-1H-isoindol-2-yl]piperidine-2,6-dione], for which the DC50 on Ikaros is above 20000 nM; at Helios it was 85 nM.

Take `COc1cccc2c(-c3ccc4c(c3)CN(C3CCC(=O)NC3=O)C4=O)nc(N)cc12` (centres unmarked) [Example 54, 3-[5-(3-Amino-5-methoxyisoquinolin-1-yl)-1-oxo-2,3-dihydro-1H-isoindol-2-yl]piperidine-2,6-dione]: the DC50 was found to be 5000 nM on Ikaros and 40 nM on Helios.

In the case of `CC(=O)N1CCN(c2nc(-c3ccc4c(c3)CN(C3CCC(=O)NC3=O)C4=O)nc3ncccc23)CC1` (centres unmarked) [Example 55, 3-(5-(4-(4-acetylpiperazin-1-yl)pyrido[2,3-d]pyrimidin-2-yl)-1-oxoisoindolin-2-yl)piperidine-2,6-dione], the results for the DC50 at Ikaros and at Helios were 8100 nM and 1000 nM, respectively.

As to `O=C1CCC(N2Cc3cc(-c4ncc(Br)c5cc[nH]c45)ccc3C2=O)C(=O)N1` (centres unmarked) [Example 56, 3-(5-{4-bromo-1H-pyrrolo[2,3-c]pyridin-7-yl}-1-oxo-2,3-dihydro-1H-isoindol-2-yl) piperidine-2,6-dione], the DC50 came out at 49 nM on Ikaros and 27 nM on Helios.

Regarding `Nc1nc(-c2ccc3c(c2)CN(C2CCC(=O)NC2=O)C3=O)cc2ncccc12` (centres unmarked) [Example 57, 3-[5-(5-amino-1,6-naphthyridin-7-yl)-1-oxo-2,3-dihydro-1H-isoindol-2-yl]piperidine-2,6-dione], the DC50 on Ikaros is above 20000 nM; on Helios, 7 nM.

On to `COc1ccc2c(-c3ccc4c(c3)CN(C3CCC(=O)NC3=O)C4=O)nc(OC)cc2c1` (centres unmarked) [Example 58, 3-[5-(3,6-dimethoxyisoquinolin-1-yl)-1-oxo-2,3-dihydro-1H-isoindol-2-yl]piperidine-2,6-dione], for which the DC50 is 9 nM at Ikaros and 1 nM on Helios.

As for `O=Cc1cc2c(-c3ccc4c(c3)CN(C3CCC(=O)NC3=O)C4=O)nccc2s1` (centres unmarked) [Example 60, 4-[2-(2,6-dioxopiperidin-3-yl)-1-oxo-2,3-dihydro-1H-isoindol-5-yl]thieno[3,2-c]pyridine-2-carbaldehyde], the DC50 was 160 nM on Ikaros and 15 nM on Helios.

Consider `Cc1cc(=O)c2ccc(-c3ccc4c(c3)CN(C3CCC(=O)NC3=O)C4=O)nc2o1` (centres unmarked) [Example 62, 3-(5-{2-methyl-4-oxo-4H-pyrano[2,3-b]pyridin-7-yl}-1-oxo-2,3-dihydro-1H-isoindol-2-yl)piperidine-2,6-dione], for which the DC50 at Ikaros and at Helios was above 20000 nM throughout.

Consider `O=C1CCC(N2Cc3cc(-c4nccc5cccnc45)ccc3C2=O)C(=O)N1` (centres unmarked) [Example 64, 3-[5-(1,7-naphthyridin-8-yl)-1-oxo-2,3-dihydro-1H-isoindol-2-yl]piperidine-2,6-dione], for which the DC50 on Ikaros and at Helios was above 20000 nM in each case.

Regarding `Nc1cn2nc(-c3ccc4c(c3)CN(C3CCC(=O)NC3=O)C4=O)ccc2n1` (centres unmarked) [Example 65, 3-(5-{2-aminoimidazo[1,2-b]pyridazin-6-yl}-1-oxo-2,3-dihydro-1H-isoindol-2-yl)piperidine-2,6-dione], the DC50 on Ikaros and at Helios was above 20000 nM each time.

`O=C1CCC(N2Cc3cc(-c4nccc5ccccc45)ccc3C2=O)C(=O)N1` (centres unmarked) [Example 66, 3-[5-(isoquinolin-1-yl)-1-oxo-2,3-dihydro-1H-isoindol-2-yl]piperidine-2,6-dione]: the DC50 on Ikaros came out at 25 nM; at Helios, 6 nM.

For `O=C1CCC(N2Cc3cc(-c4cc5ccccc5cn4)ccc3C2=O)C(=O)N1` (centres unmarked) [Example 67, 3-[5-(isoquinolin-3-yl)-1-oxo-2,3-dihydro-1H-isoindol-2-yl]piperidine-2,6-dione], the DC50 on Ikaros was found to be 3000 nM; on Helios it was 42 nM.

As for `Nc1nccc(-c2ccc3c(c2)CN(C2CCC(=O)NC2=O)C3=O)n1` (centres unmarked) [Example 70, 3-(5-(2-aminopyrimidin-4-yl)-1-oxoisoindolin-2-yl)piperidine-2,6-dione], the DC50 at Ikaros was above 20000 nM; on Helios it was 480 nM.

On to `O=C1CCC(N2Cc3cc(-c4nccc(-c5ccccc5)n4)ccc3C2=O)C(=O)N1` (centres unmarked) [Example 71, 3-(1-oxo-5-(4-phenylpyrimidin-2-yl)isoindolin-2-yl)piperidine-2,6-dione], for which the DC50 was above 20000 nM on Ikaros and 75 nM at Helios.

As for `O=C1CCC(N2Cc3cc(-c4nccc(-c5cccnc5)n4)ccc3C2=O)C(=O)N1` (centres unmarked) [Example 72, 3-(1-oxo-5-(4-(pyridin-3-yl)pyrimidin-2-yl)isoindolin-2-yl)piperidine-2,6-dione], the DC50 on Ikaros and on Helios was above 20000 nM each time.

In the case of `Nc1nc(-c2ccccc2)nc(-c2ccc3c(c2)CN(C2CCC(=O)NC2=O)C3=O)n1` (centres unmarked) [Example 73, 3-(5-(4-amino-6-phenyl-1,3,5-triazin-2-yl)-1-oxoisoindolin-2-yl)piperidine-2,6-dione], the DC50 at Ikaros was 450 nM; on Helios, 67 nM.

`O=C1CCC(N2Cc3cc(-c4cc(-c5ccccc5)ccn4)ccc3C2=O)C(=O)N1` (centres unmarked) [Example 74, 3-(1-oxo-5-(4-phenylpyridin-2-yl)isoindolin-2-yl)piperidine-2,6-dione]: the DC50 came to 34 nM at Ikaros and 32 nM on Helios.

For the compound `O=C1CCC(N2Cc3cc(-c4nccc(-c5ccccn5)n4)ccc3C2=O)C(=O)N1` (centres unmarked) [Example 75, 3-(1-oxo-5-(4-(pyridin-2-yl)pyrimidin-2-yl)isoindolin-2-yl)piperidine-2,6-dione], the DC50 at Ikaros is above 20000 nM; on Helios, 1200 nM.

Take `N#Cc1ccnnc1-c1ccc2c(c1)CN(C1CCC(=O)NC1=O)C2=O` (centres unmarked) [Example 76, 3-(2-(2,6-dioxopiperidin-3-yl)-1-oxoisoindolin-5-yl)pyridazine-4-carbonitrile]: the DC50 on Ikaros and at Helios was above 20000 nM each time.

`N#Cc1ccc(-c2ccc3c(c2)CN(C2CCC(=O)NC2=O)C3=O)nn1` (centres unmarked) [Example 77, 6-[2-(2,6-Dioxopiperidin-3-yl)-1-oxo-2,3-dihydro-1H-isoindol-5-yl]pyridazine-3-carbonitrile]: the DC50 at Ikaros and at Helios was above 20000 nM throughout.

On to `NC(=O)c1ccc(-c2ccc3c(c2)CN(C2CCC(=O)NC2=O)C3=O)nn1` (centres unmarked) [Example 78, 6-[2-(2,6-dioxopiperidin-3-yl)-1-oxo-2,3-dihydro-1H-isoindol-5-yl]pyridazine-3-carboxamide], for which the figures for the DC50 on Ikaros and at Helios were above 20000 nM and 2800 nM, respectively.

As to `Nc1ccc([N+](=O)[O-])c(-c2ccc3c(c2)CN(C2CCC(=O)NC2=O)C3=O)n1` (centres unmarked) [Example 79, 3-[5-(6-Amino-3-nitropyridin-2-yl)-1-oxo-2,3-dihydro-1H-isoindol-2-yl]piperidine-2,6-dione], the DC50 on Ikaros and at Helios was above 20000 nM throughout.
